Experimental data reported in US20240210412A1, “SULFONYL-TRIAZOLE COMPOUNDS USEFUL AS LIGANDS AND INHIBITORS OF PROSTAGLANDIN REDUCTASE 2” (University of Virginia Patent Foundation, priority 2021, published 2024).

Key:
Assay in all cases: SILAC LC-MS ABPP
Format in all cases: cell-based
Details in all cases: 25 μM 2 h, live DM93 cells
P61978 = target: T1, P61978 (Homo sapiens, UniProt P61978)
T1 construct: performing SuTEx compound screening directly in cells; endogenous in cells; host or cells: DM93 cells (SILAC)
Procedure, shortened: (§1)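 Competitive activity-based profiling in isotopically labelled DM93 melanoma cells. Heavy cells received 25 μM sulfonyl-triazole ligand and light cells vehicle, each for 2 h at 37 °C, before 2 h with 100 μM HHS-475. Labelled soluble proteins were tagged via CuAAC, combined, digested and enriched before LC-MS/MS.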

Q8N6H7 = target: T2, Q8N6H7 (Homo sapiens, UniProt Q8N6H7)
T2 construct: endogenous in cells; host or cells: DM93 cells (SILAC), live-cell treatment
Procedure, shortened: as §1

Q9H223 = target: T3, Q9H223 (Homo sapiens, UniProt Q9H223)
T3 construct: endogenous in cells; host or cells: DM93 cells (SILAC), treated live; soluble proteome analysed
Procedure, shortened: as §1

O43172 = target: T4, O43172 (Homo sapiens, UniProt O43172)
T4 construct: endogenous in cells; host or cells: DM93
Procedure, shortened: as §1

O95163 = target: T5, O95163 (Homo sapiens, UniProt O95163)
T5 construct: endogenous in cells; host or cells: DM93 cells (SILAC)
Procedure, shortened: as §1

P13674 = target: T6, P13674 (Homo sapiens, UniProt P13674)
T6 construct: endogenous in cells; host or cells: DM93 cells (SILAC)
Procedure, shortened: as §1

P49792 = target: T7, P49792 (Homo sapiens, UniProt P49792)
T7 construct: endogenous in cells; host or cells: DM93 cells (SILAC)
Procedure, shortened: as §1

Q86VS8 = target: T8, Q86VS8 (Homo sapiens, UniProt Q86VS8)
T8 construct: endogenous in cells; host or cells: DM93 cells (SILAC), live-cell treatment
Procedure, shortened: as §1

Q8WVJ2 = target: T9, Q8WVJ2 (Homo sapiens, UniProt Q8WVJ2)
T9 construct: endogenous in cells; host or cells: DM93 cells (SILAC), live-cell treatment
Procedure, shortened: as §1

Q9UJ68 = target: T10, Q9UJ68 (Homo sapiens, UniProt Q9UJ68)
T10 construct: endogenous in cells; host or cells: DM93 cells (SILAC)
Procedure, shortened: as §1

O14578 = target: T11, O14578 (Homo sapiens, UniProt O14578)
T11 construct: endogenous in cells; host or cells: DM93
Procedure, shortened: as §1

P49585 = target: T12, P49585 (Homo sapiens, UniProt P49585)
T12 construct: endogenous in cells; host or cells: DM93 cells (SILAC)
Procedure, shortened: as §1

P78537 = target: T13, P78537 (Homo sapiens, UniProt P78537)
T13 construct: performing SuTEx compound screening directly in cells; endogenous in cells; host or cells: DM93 cells (SILAC)
Procedure, shortened: as §1

Q13428 = target: T14, Q13428 (Homo sapiens, UniProt Q13428)
T14 construct: performing SuTEx compound screening directly in cells; endogenous in cells; host or cells: DM93 cells (SILAC), soluble fraction
Procedure, shortened: as §1

Q14914 = target: T15, Q14914 (Homo sapiens, UniProt Q14914)
T15 construct: performing SuTEx compound screening directly in cells; endogenous in cells; host or cells: DM93 cells (SILAC), soluble fraction
Procedure, shortened: as §1

P24666 = target: T16, P24666 (Homo sapiens, UniProt P24666)
T16 construct: endogenous in cells; host or cells: DM93 (SILAC)
Procedure, shortened: as §1

Q15654 = target: T17, Q15654 (Homo sapiens, UniProt Q15654)
T17 construct: performing SuTEx compound screening directly in cells; endogenous in cells; host or cells: DM93 cells (SILAC), soluble fraction
Procedure, shortened: as §1

Q86XP3 = target: T18, Q86XP3 (Homo sapiens, UniProt Q86XP3)
T18 construct: endogenous in cells; host or cells: DM93 cells (SILAC), live-cell treatment
Procedure, shortened: as §1

T4 sequence (O43172 whole entry): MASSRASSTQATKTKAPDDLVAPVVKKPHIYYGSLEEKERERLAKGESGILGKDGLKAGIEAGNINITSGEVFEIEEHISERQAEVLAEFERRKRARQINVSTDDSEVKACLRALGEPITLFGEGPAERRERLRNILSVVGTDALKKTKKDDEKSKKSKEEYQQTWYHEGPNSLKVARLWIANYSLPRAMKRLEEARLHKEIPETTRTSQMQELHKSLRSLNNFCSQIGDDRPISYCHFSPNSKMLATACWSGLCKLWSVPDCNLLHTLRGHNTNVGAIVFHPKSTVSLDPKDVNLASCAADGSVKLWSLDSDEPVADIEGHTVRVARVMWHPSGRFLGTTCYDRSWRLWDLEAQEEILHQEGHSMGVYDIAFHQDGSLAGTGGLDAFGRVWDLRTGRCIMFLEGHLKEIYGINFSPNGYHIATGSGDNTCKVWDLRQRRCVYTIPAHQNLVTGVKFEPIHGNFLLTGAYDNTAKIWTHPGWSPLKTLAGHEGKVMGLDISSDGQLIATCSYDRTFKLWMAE
T18 sequence (Q86XP3 whole entry): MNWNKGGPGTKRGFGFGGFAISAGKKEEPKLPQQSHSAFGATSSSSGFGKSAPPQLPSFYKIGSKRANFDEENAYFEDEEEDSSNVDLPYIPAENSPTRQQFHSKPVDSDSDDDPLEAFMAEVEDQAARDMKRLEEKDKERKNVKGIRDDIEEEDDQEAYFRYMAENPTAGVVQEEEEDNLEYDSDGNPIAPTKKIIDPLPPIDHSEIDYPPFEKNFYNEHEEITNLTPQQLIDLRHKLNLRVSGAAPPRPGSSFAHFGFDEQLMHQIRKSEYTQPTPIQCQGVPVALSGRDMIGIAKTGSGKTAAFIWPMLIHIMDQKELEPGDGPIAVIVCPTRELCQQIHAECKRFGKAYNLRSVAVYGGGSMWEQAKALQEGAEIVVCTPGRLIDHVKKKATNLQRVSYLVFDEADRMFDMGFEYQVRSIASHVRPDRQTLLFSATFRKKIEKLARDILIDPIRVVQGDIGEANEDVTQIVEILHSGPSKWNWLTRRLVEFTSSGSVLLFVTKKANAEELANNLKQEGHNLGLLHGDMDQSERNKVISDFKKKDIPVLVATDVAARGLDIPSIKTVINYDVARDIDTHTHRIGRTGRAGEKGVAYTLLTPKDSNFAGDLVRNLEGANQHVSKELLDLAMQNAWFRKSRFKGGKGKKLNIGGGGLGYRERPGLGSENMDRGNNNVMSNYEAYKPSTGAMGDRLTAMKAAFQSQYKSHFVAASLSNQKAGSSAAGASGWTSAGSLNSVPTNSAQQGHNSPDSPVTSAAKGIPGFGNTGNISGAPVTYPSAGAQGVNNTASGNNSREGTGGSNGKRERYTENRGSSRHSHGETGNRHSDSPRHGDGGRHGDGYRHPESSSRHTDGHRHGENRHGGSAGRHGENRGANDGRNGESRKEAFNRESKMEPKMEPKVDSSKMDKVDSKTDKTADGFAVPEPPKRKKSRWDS
T17 sequence (Q15654 whole entry): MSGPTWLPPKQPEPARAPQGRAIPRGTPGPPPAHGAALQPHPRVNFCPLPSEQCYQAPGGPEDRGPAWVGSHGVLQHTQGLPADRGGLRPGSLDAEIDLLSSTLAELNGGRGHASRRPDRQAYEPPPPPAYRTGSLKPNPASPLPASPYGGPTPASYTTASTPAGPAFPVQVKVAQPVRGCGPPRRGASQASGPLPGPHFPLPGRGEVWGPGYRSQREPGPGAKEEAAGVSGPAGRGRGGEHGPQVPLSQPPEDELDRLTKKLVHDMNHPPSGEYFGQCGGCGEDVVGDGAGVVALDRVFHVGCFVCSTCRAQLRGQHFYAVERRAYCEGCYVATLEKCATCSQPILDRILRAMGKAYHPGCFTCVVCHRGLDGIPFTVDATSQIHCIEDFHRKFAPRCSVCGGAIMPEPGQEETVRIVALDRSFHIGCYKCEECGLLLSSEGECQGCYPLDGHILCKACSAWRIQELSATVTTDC
T9 sequence (Q8WVJ2 whole entry): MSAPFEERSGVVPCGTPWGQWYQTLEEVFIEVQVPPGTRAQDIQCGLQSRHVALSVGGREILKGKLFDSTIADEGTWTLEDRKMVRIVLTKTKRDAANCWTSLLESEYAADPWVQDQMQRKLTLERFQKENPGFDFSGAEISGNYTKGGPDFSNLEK
T13 sequence (P78537 whole entry): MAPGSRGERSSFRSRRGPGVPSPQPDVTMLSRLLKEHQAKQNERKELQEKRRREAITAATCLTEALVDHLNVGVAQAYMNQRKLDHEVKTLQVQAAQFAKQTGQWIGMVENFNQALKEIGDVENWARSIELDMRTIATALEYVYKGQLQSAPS
T12 sequence (P49585 whole entry): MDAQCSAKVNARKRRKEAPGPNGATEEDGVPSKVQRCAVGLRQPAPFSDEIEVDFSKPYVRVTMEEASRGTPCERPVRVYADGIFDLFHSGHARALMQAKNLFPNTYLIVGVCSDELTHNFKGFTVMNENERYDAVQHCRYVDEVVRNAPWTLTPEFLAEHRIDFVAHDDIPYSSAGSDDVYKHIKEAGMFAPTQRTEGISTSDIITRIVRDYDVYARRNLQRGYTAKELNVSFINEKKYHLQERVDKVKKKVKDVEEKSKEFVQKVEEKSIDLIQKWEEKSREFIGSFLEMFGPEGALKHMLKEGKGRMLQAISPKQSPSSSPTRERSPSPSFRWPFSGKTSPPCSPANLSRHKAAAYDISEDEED
T2 sequence (Q8N6H7 whole entry): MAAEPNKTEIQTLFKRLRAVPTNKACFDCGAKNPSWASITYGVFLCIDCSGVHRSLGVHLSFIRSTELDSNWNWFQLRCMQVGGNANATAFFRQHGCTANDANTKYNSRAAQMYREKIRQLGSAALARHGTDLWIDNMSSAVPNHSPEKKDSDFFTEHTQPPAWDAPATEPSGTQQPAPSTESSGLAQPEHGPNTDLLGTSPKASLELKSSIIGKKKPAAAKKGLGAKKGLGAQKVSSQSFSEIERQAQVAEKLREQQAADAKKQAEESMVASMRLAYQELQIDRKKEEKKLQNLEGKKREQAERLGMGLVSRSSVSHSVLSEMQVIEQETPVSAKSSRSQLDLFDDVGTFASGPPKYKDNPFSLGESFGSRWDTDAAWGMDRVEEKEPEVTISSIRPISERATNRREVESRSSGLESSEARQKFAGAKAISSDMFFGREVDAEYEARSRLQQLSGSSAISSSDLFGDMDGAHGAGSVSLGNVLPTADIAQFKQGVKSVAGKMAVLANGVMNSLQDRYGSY
T5 sequence (O95163 whole entry): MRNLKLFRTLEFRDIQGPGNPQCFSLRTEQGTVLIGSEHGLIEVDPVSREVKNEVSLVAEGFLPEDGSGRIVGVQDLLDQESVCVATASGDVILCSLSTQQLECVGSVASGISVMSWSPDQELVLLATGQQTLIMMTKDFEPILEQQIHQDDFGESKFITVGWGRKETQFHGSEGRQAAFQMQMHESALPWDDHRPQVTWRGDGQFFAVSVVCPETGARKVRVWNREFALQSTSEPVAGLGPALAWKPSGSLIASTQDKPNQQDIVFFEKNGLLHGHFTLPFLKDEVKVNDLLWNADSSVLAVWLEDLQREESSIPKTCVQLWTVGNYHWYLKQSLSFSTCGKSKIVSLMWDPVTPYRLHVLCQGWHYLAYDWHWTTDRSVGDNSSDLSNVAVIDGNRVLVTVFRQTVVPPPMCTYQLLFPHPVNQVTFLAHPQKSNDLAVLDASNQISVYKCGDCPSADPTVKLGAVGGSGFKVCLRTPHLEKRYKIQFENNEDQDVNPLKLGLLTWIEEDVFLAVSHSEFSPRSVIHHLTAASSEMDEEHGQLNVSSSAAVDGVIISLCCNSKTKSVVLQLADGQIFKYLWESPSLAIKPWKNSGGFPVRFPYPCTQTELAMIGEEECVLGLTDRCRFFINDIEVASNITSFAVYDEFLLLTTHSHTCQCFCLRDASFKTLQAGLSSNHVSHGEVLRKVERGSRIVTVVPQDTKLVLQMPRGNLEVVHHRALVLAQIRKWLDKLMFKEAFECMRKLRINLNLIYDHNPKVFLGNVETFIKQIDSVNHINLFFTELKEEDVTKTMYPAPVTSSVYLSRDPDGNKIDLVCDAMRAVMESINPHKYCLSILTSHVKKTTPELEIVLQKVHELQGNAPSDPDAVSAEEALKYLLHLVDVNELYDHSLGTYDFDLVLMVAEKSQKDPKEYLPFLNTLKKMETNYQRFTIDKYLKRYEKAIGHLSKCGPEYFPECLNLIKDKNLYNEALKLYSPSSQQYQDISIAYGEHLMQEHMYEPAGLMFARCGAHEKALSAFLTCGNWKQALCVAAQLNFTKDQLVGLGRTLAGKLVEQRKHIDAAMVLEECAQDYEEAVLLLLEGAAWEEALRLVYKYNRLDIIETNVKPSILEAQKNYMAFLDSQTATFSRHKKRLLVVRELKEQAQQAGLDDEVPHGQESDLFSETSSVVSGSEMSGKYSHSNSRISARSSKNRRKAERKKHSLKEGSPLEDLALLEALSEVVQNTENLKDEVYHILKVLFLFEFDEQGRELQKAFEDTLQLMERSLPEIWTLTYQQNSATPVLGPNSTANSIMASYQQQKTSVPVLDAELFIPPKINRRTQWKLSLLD
T10 sequence (Q9UJ68 24-235): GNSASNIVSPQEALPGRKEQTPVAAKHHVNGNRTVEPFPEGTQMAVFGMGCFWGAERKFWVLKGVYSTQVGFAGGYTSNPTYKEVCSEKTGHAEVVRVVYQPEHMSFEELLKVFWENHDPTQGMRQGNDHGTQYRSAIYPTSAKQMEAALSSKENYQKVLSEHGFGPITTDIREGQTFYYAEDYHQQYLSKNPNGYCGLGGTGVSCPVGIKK
T16 sequence (P24666 whole entry): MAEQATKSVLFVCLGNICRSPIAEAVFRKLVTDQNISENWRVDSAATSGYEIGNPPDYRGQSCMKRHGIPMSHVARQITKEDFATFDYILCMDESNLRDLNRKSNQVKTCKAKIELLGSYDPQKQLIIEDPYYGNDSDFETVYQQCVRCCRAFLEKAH

## O=C(c1ccc(S(=O)(=O)n2cncn2)cc1)N1CCC(c2ccccc2)CC1 [HHS-0701, (4-((1H-1,2,4-triazol-1-yl)sulfonyl)phenyl)(4-phenylpiperidin-1-yl)methanone]
P61978
  liganded tyrosine site 138: HHS0701.Y (tyrosine sites that showed >80% reductions (SR >5) in probe labeling in cells treated with compounds (liganded sites))
Q8N6H7
  liganded tyrosine site 445: HHS0701.Y (tyrosine sites that showed >80% reductions (SR >5) in probe labeling in cells treated with compounds (liganded sites))
Q9H223
  liganded tyrosine site 70: HHS0701.Y (tyrosine sites that showed >80% reductions (SR >5) in probe labeling in cells treated with compounds (liganded sites))

## O=C(NC1CC1)c1ccc(S(=O)(=O)n2cncn2)cc1 [HHS-0101, 4-((1H-1,2,4-triazol-1-yl)sulfonyl)-N-cyclopropylbenzamide]
O43172
  liganded tyrosine site 31: HHS0101.Y|HHS0301.Y (tyrosine sites that showed >80% reductions (SR >5) in probe labeling in cells treated with compounds (liganded sites))
  liganded tyrosine site 32: HHS0101.Y|HHS0301.Y (tyrosine sites that showed >80% reductions (SR >5) in probe labeling in cells treated with compounds (liganded sites))
O95163
  liganded tyrosine site 957: HHS0101.Y|HHS0301.Y|HHS0401.Y (tyrosine sites that showed >80% reductions (SR >5) in probe labeling in cells treated with compounds (liganded sites))
P13674
  liganded tyrosine site 250: HHS0101.Y (tyrosine sites that showed >80% reductions (SR >5) in probe labeling in cells treated with compounds (liganded sites))
P49792
  liganded tyrosine site 1983: HHS0101.Y (tyrosine sites that showed >80% reductions (SR >5) in probe labeling in cells treated with compounds (liganded sites))
Q86VS8
  liganded tyrosine site 323: HHS0101.Y|HHS0401.Y|HHS0701.Y (tyrosine sites that showed >80% reductions (SR >5) in probe labeling in cells treated with compounds (liganded sites))
Q8WVJ2
  liganded tyrosine site 145: HHS0101.Y (tyrosine sites that showed >80% reductions (SR >5) in probe labeling in cells treated with compounds (liganded sites))
Q9UJ68
  liganded tyrosine site 211: HHS0101.Y|HHS0401.Y|HHS0701.Y (tyrosine sites that showed >80% reductions (SR >5) in probe labeling in cells treated with compounds (liganded sites))

## O=C(NC1CCCCC1)c1ccc(S(=O)(=O)n2cncn2)cc1 [HHS-0301, 4-((1H-1,2,4-triazol-1-yl)sulfonyl)-N-cyclohexylbenzamide]
O14578
  liganded tyrosine site 818: HHS0301.Y (tyrosine sites that showed >80% reductions (SR >5) in probe labeling in cells treated with compounds (liganded sites))
P49585
  liganded tyrosine site 173: HHS0301.Y (tyrosine sites that showed >80% reductions (SR >5) in probe labeling in cells treated with compounds (liganded sites))
P78537
  liganded tyrosine site 78: HHS0301.Y|HHS0401.Y|HHS0701.Y (tyrosine sites that showed >80% reductions (SR >5) in probe labeling in cells treated with compounds (liganded sites))

## O=C(NCc1ccccc1)c1ccc(S(=O)(=O)n2cncn2)cc1 [HHS-0401, 4-((1H-1,2,4-triazol-1-yl)sulfonyl)-N-benzylbenzamide]
Q13428
  liganded tyrosine site 15: HHS0401.Y (tyrosine sites that showed >80% reductions (SR >5) in probe labeling in cells treated with compounds (liganded sites))
Q14914
  liganded tyrosine site 262: HHS0401.Y (tyrosine sites that showed >80% reductions (SR >5) in probe labeling in cells treated with compounds (liganded sites))

## O=C(NCC1CC1)c1ccc(S(=O)(=O)n2cncn2)cc1 [HHS-0201, 4-((1H-1,2,4-triazol-1-yl)sulfonyl)-N-(cyclopropylmethyl)benzamide]
P24666
  liganded tyrosine site 88: HHS0201.Y|HHS0401.Y|HHS0701.Y (tyrosine sites that showed >80% reductions (SR >5) in probe labeling in cells treated with compounds (liganded sites))
Q15654
  liganded tyrosine site 157: HHS0201.Y (tyrosine sites that showed >80% reductions (SR >5) in probe labeling in cells treated with compounds (liganded sites))
Q86XP3
  liganded tyrosine site 685: HHS0201.Y (tyrosine sites that showed >80% reductions (SR >5) in probe labeling in cells treated with compounds (liganded sites))
